From patent US20170240522A1, “BENZOTHIOPHENE, BENZYLOXYBENZYLIDENE AND INDOLINE DERIVATIVES USEFUL FOR THE TREATMENT OF TUBERCULOSIS” (priority 2014, published 2017)

Key:
ESX-1 = ESX-1 inhibitory activity of inhibitors of mycobacterium virulence (Table VII); assay type: cell-based, Mycobacterium tuberculosis
EsxA = assay type: cell-based, Mycobacterium tuberculosis
[1] = test system: Mtb-infected THP-1 macrophages; assay type: cell-based, human
Mtb-Erdman = assay: Growth of Mtb in 7H9 broth; assay type: cell-based, Mycobacterium tuberculosis; conditions: 25 μM
GroEL = conditions: BBH7 and BTP15 treatment
Method: In brief, 30 ml of bacteria grown to mid-logarithmic phase (OD600 of 0.6 to 0.7) in Sauton's medium supplemented with 0.05% Tween 80 were centrifuged and resuspended in Sauton's medium without Tween. Compounds were added at concentrations as indicated and cells were grown further at 37° C. with shaking for 4 days. Cultures were harvested by centrifugation to obtain culture filtrates and cell pellets. Culture filtrates were concentrated 100-fold in 5-kDa cutoff Vivaspin columns (Sartorius). Cell lysates were prepared by bead beating bacterial pellets in lysis buffer with 100-μm glass beads.
For immunoblot analysis, 5 μg of protein were resolved by SDS-gel electrophoresis and transferred to nitrocellulose membranes. Membranes were blocked with TBS-buffer (3% milk powder) and incubated overnight with the desired primary antibody diluted in TNT-buffer supplemented with 1% BSA fraction V. Membranes were washed with TNT, incubated with the appropriate secondary antibody in TNT-BSA, washed again with TNT, and developed. GroEL2 was used as a lysis control for culture filtrates and as a loading control for cell lysates.

[2] = test system: Mtb expressing GFP in infected fibroblasts; assay type: cell-based, Mycobacterium tuberculosis; conditions: compound concentration 5 μM (FIG. 2D)
THP-1 macrophages = assay: Survival of Mtb-infected activated THP-1 macrophages; assay type: cell-based, human; conditions: activated THP-1, higher MOI, 10 μM
Mtb transcriptome = assay: RNA-seq and qRT-PCR of compound-treated Mtb; assay type: cell-based, Mycobacterium tuberculosis; conditions: RNA-seq, 5 μM
Method: For the transcriptomic studies, bacteria were grown under the same conditions as for protein secretion assays. Drug exposure time was 8 hours with 5 μM of compound for RNA-seq experiments and confirmatory qRT-PCR. RNA was extracted with Trizol (Invitrogen) and treated with DNase I (Roche) prior to library preparation or generation of the cDNA template. cDNA was synthesized using the RevertAid First Strand cDNA Synthesis Kit (Fermentas) using random hexamer primer. cDNA corresponding to 10 ng of input RNA was used in each RT-PCR reaction supplemented with specific primer pairs (200 nM each) listed in Table S4 and SYBR-Green master mix (Applied Biosystems). Quantitative RT-PCR reactions were performed with the 7900HT Fast Real-Time PCR System (Applied Biosystems) with the following parameters: 50° C. for 2 min, 95° C. for 10 min, followed by 40 cycles of 95° C. for 15 s and 60° C. for 60 s. Melt curve analysis was used to confirm specific amplification for each primer pair. Unpaired Student's T-tests were used for statistical analyses.
For the RNA-seq library preparation 100 ng of total RNA were used in the TruSeq Stranded mRNA LT kit, according to the instructions provided by the manufacturer (Illumina). A small aliquot was analyzed on Qubit and Fragment Analyzer prior to sequencing on Illumina HiSeq using the TruSeq SR Cluster Generation Kit v3 and TruSeq SBS Kit v3. Data were processed with the Illumina Pipeline Software v1.82. RNA-seq data were deposited in the Gene Expression Omnibus (GEO) server at the National Center for Biotechnology Information (NCBI).
• All analyses in this study were carried out using the M. tuberculosis H37Rv annotation from the TubercuList database (http://tuberculist.epfl.ch/) (Lew et al., 2011). There are 4019 protein coding sequences (CDS) currently annotated in the genome, 73 genes encoding for stable RNAs, small RNAs and tRNAs. In order to quantify protein occupancy and transcription across the entire genome, 3080 intergenic regions (regions flanked by two non-overlapping CDS) were included, resulting in a total of 7172 features. • The single-ended sequence reads generated from RNA-seq experiments were aligned to the M. tuberculosis H37Rv genome (NCBI accession NC_000962.2) using Bowtie2 with default parameters (Langmead and Salzberg, 2012). Read counts for all annotated features were obtained with the htseq-count program (http://www.huber.embl.de/users/anders/HTSeq/doc/count.html). Regions where genes overlapped were excluded from counting. Reads spanning more than one feature were counted for each feature. Since the RNA library was strand-specific, the orientation of sequence reads had to correspond to the orientation of annotated features to be counted. Analysis of differential gene expression was carried out using the DESeq package (Anders and Huber, 2010).

For `CSC(=S)N/N=C(\C)c1ccc(OCc2ccc(F)cc2F)cc1` [BBH7, N′-{1-[4-(2,4-Difluoro-benzyloxy)-phenyl]ethylidene}-hydrazinecarbodithioic acid methyl ester], the Activity (ESX-1) was 97%, the EsxA secretion (EsxA) was “dose-dependent secretion inhibition” and the “rate of bacteria in acidic compartments (Lysotracker Red co-localization)” value [1] was “significantly higher rate”. For the same compound, the “growth inhibition of Mtb” value (Mtb-Erdman) was “no growth inhibition”, the “GroEL in the culture filtrate (cell lysis)” value (GroEL) was “not observed” and the “GFP fluorescence of Mtb in infected fibroblasts” value [2] was “no fluorescence was detected”. For the same compound, the “protection of THP-1 cells from Mtb-induced cell death” value (THP-1 macrophages) was “protected THP-1 cells from Mtb-induced cell death”, the “upregulated genes (number)” value (Mtb transcriptome) was 121 genes and the “upregulation of the metallothionein mymT” value (Mtb transcriptome) was 20 fold. For the same compound, the “differentially regulated genes (number)” value (Mtb transcriptome; 8 hours) was 144 genes.
